Holding throughout (test): NCI tumour cell line growth inhibition, 48 h
Assay [1] deals with A549 NSCLC.
Assay [2] relates to CAKI-1 renal.
The test system of assay [3] is EKVX NSCLC.
The subject of assay [4] is HOP-92 NSCLC.
Assay [5] concerns K-562 leukemia.
The test system of assay [6] is M14 melanoma.
Assay [7] deals with MDA-MB-231 breast.
In assay [8] the test system is SNB-75 CNS.
Assay [9] concerns T-47D breast.
Assay [10] has as its system TK-10 renal.

Molecules are shown by their SMILES. Several values for one entry are separate records, joined by “and”; a condition that tells them apart may be missing. Identical values can stand only once.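 Assay format: 96-well plates, 48-hour exposure. Abbreviation: GI50, concentration required for 50% inhibition of growth. TGI: concentration producing complete growth inhibition.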

In the case of `O=C1COCCN1c1ccc(NCc2cn(C(=O)c3ccc(Cl)cc3)c3ccccc23)cc1`, the GI50 in assay [1] was 3.36 µM; in assay [2], 0.0531 µM; in assay [3], 17.2 µM; in assay [4], 1.66 µM; in assay [5] it was 1.84 µM; in assay [6], 7.92 µM. Moreover, the GI50 is 4.61 µM in assay [7], 2.6 µM in assay [8], 0.264 µM in assay [9] and 0.148 µM in assay [10]. Moreover, the TGI was more than 100 µM in assay [1]; 1.8 µM in [2]; more than 100 µM in assay [3]; 15 µM in assay [4]; 17 µM in assay [5]; more than 100 µM in [6]. The TGI in assay [7] stood at 22.9 µM; in [8], 52.6 µM; in [9], 83.8 µM; in assay [10] it was 2.18 µM.

Turning to `COC(=O)Nc1nc2ccc(S(=O)(=O)c3ccc(NC(=O)Nc4cc(C(F)(F)F)ccc4F)cc3)cc2[nH]1`, the GI50 in [1], in assay [2], in assay [3], in [4], in [5] and in [6] was more than 25 µM in each case. Besides, the GI50 in [7], in assay [8], in assay [9] and in assay [10] was more than 25 µM in each case. Moreover, the TGI in assay [1], in assay [2], in assay [3], in [4], in assay [5] and in assay [6] was more than 25 µM throughout. Moreover, the TGI in [7], in [8], in assay [9] and in [10] was more than 25 µM in each case.

Consider `COc1ccc2c(c1)C=C1CSCC3=Cc4cc(OC)ccc4OC13O2`, for which the GI50 in [1] was 0.492 µM; in assay [2], 0.41 µM; in [3] it was 3.14 µM; in assay [4] it was 4.6 µM; in assay [5], 0.228 µM; in [6], 0.323 µM. Besides, the GI50 is 0.568 µM in assay [7], 0.183 µM in assay [8], 0.418 µM in [9] and more than 100 µM in [10]. Further, the TGI in assay [1], in assay [2], in assay [3], in assay [4], in [5] and in assay [6] was more than 100 µM throughout. For the same compound, the TGI in [7] is more than 100 µM; in assay [8] it was 0.598 µM; in assay [9] it was more than 100 µM; in assay [10] it was more than 100 µM.

With `NCCSC(C[N+](=O)[O-])c1ccccc1Cl` (stereo not given), the GI50 in assay [1] was 4.87 µM; in assay [2], 9.88 µM; in assay [3], 16.9 µM; in [4], 12.5 µM; in assay [5], 2.96 µM; in assay [6] it was 2.14 µM. Also, the GI50 in [7] was 12 µM; in assay [8], 4.22 µM; in [9], 2.23 µM; in assay [10], 5.59 µM. Also, the TGI in assay [1] is 15.5 µM; in assay [2], 24.3 µM; in assay [3], 41.6 µM; in assay [4] it was 47.2 µM; in [5], more than 23.7 µM; in assay [6], 6.01 µM. Besides, the TGI in [7] was found to be 25.8 µM; in [8], 16.9 µM; in [9], 9.09 µM; in assay [10], 19 µM.

`Oc1ccc(O)c2c1C1(Cl)C(Cl)=C(Cl)C2(Cl)C1(Cl)Cl`: the GI50 was 5.89 µM in assay [1]; 2.44 µM in assay [2]; 1.47 µM in assay [3]; 1.51 µM in assay [4]; 2.94 µM in assay [5]; 3.03 µM in [6]. Further, the GI50 was 4.65 µM in [7], 1.52 µM in [8], 5.19 µM in [9] and 4.96 µM in assay [10]. For the same compound, the TGI was 37.4 µM in [1]; 8.31 µM in assay [2]; 7.45 µM in [3]; 7.13 µM in assay [4]; 93 µM in [5]; 12 µM in assay [6]. For the same compound, the TGI was 23 µM in [7], 6.84 µM in assay [8], 24.3 µM in assay [9] and 27.7 µM in assay [10].

For the compound `Oc1ccc(Cn2c(-c3ccc(O)cc3)nc3ccccc32)cc1`, the TGI in assay [1], in assay [2], in [3], in [4], in assay [5] and in assay [6] was more than 100 µM in each case. The TGI in [7], in assay [8], in [9] and in assay [10] was more than 100 µM throughout.

On to `CC(C)=CCc1cc(C2COc3cc4c(c(O)c3C2=O)C=CC(C)(C)O4)c(O)cc1O` (stereo not given), for which the TGI in assay [1] was 27.9 µM; in assay [2], 30.9 µM; in assay [3] it was 27.5 µM; in assay [4], 33.1 µM; in assay [5], 10.7 µM; in [6], 26.2 µM. For the same compound, the TGI in [7] is 27.5 µM; in assay [8] it was 36 µM; in assay [9] it was 27.2 µM; in assay [10] it was 31.7 µM.

For `Nc1nc(Cl)nc2c1ncn2[C@@H]1O[C@H](COS(N)(=O)=O)[C@@H](O)[C@H]1O`, the GI50 is 0.0259 µM and 0.0263 µM in [1]; 0.0208 µM in assay [2]; 0.0232 µM and 0.0301 µM in assay [3]; 0.0159 µM and 0.0206 µM in assay [4]; 0.017 µM and 0.0199 µM in [5]; 0.0186 µM and 0.0192 µM in [6]. Further, the GI50 in [7] was 0.00481 µM; in assay [8], 0.0202 µM and 0.0209 µM; in assay [9] it was 0.0156 µM and 0.02 µM; in assay [10] it was 0.021 µM and 0.0211 µM. Moreover, the TGI is 0.0829 µM and 0.0823 µM in [1]; 0.0506 µM in [2]; 0.0688 µM and 0.167 µM in assay [3]; 0.0454 µM and 0.056 µM in [4]; 0.118 µM in [5]; 0.0421 µM and 0.0375 µM in assay [6]. Besides, the TGI is 0.0294 µM and 0.0262 µM in assay [7]; 0.0558 µM and 0.0554 µM in assay [8]; 0.0656 µM and 0.0744 µM in assay [9]; 0.0581 µM and 0.0654 µM in assay [10].

Consider `O=C(NN1C(=O)CSC12CCC(c1ccccc1)CC2)c1[nH]c2ccc(F)cc2c1-c1ccccc1` (stereo not given), for which the GI50 in assay [1] is 15.7 µM; in [2] it was 17.5 µM; in assay [3], 26.7 µM; in [4], 17.2 µM; in [5], 23.7 µM; in assay [6], 20.1 µM. Also, the GI50 in assay [7] was 16.9 µM; in [8], 18 µM; in assay [9] it was 33.5 µM; in assay [10], 17.3 µM. In addition, the TGI was found to be 30.8 µM in [1]; 36.6 µM in assay [2]; 62 µM in assay [3]; 34.5 µM in assay [4]; 62.9 µM in [5]; 35.6 µM in assay [6]. In addition, the TGI in assay [7] is 31.6 µM; in assay [8], 36.3 µM; in assay [9] it was more than 100 µM; in assay [10] it was 31.7 µM.

`CCc1nc(N)nc(N)c1C#CC(C)c1cc(-c2ccnc(C)c2)c2oc(C)nc2c1` (stereo not given): the GI50 in [1] is less than 0.01 µM; in [2] it was less than 0.0109 µM; in assay [3], 0.451 µM; in assay [4] it was 0.703 µM; in assay [5], less than 0.01 µM; in assay [6], less than 0.01 µM. For the same compound, the GI50 in assay [7] was 0.527 µM; in [8], 0.278 µM; in assay [9] it was 0.283 µM; in [10] it was 0.126 µM. The TGI came to 11.7 µM in assay [1]; 5.58 µM in assay [2]; 15 µM in assay [3]; 11.4 µM in assay [4]; 31.3 µM in [5]; 5.69 µM in assay [6]. Also, the TGI in [7] was determined as 16.9 µM; in assay [8], 3.78 µM; in assay [9], 8.5 µM; in [10] it was 12 µM.

Consider `O=C1OC(OC/C(Br)=C(/Br)COC2OC(=O)C(Cl)=C2Cl)C(Cl)=C1Cl` (stereo not given), for which the TGI in assay [1] was found to be 48.9 µM; in assay [2] it was 7.68 µM; in assay [3], 32.2 µM; in [4], 29.2 µM; in assay [5], 5.85 µM; in [6], 17.3 µM. Moreover, the TGI in [7] amounted to 17 µM; in [8], 36 µM; in assay [9], 30.8 µM; in [10] it was 27 µM.

Consider `c1ccc(/C(=N\Nc2ccc3ccccc3n2)c2ccccn2)cc1`, for which the GI50 in assay [1] is 1.11 µM; in [2], 0.0927 µM; in assay [3] it was 0.281 µM; in [4], 0.551 µM; in assay [5], 0.649 µM; in assay [6], 0.484 µM. Besides, the GI50 in [7] was 0.839 µM; in assay [8] it was 2.56 µM; in [9] it was 0.315 µM; in [10] it was 0.372 µM. Further, the TGI was more than 36.2 µM in assay [1]; 3.95 µM in assay [2]; 8.39 µM in assay [3]; 19.8 µM in [4]; 6.52 µM in [5]; 4.44 µM in assay [6]. For the same compound, the TGI in assay [7] is 43.4 µM; in assay [8] it was more than 85.2 µM; in assay [9], 26 µM; in assay [10] it was 5.31 µM.

As to `COC1C(O)C(C)OC(O[C@@H]2C[C@H]3CC[C@@H]4[C@H](CC[C@]5(C)[C@@H](C6=CC(=O)OC6)CC[C@]45O)[C@@]3(C)[C@H](O)C2)C1O` (stereo not given in full), the TGI in assay [1] was less than 0.0462 µM; in assay [2], 0.0215 µM; in assay [3], 0.168 µM; in [4], more than 100 µM; in [5], 0.457 µM; in [6], 0.252 µM. Also, the TGI in assay [7] is more than 100 µM; in assay [8] it was 1.01 µM; in assay [9], 0.817 µM; in [10], 0.896 µM.

With `C=C1C(=O)O[C@H]2[C@H]1CC/C(CNC(=O)/C=C/c1ccc(Cl)cc1Cl)=C\CC[C@@]1(C)O[C@@H]21`, the GI50 was 2.12 µM in assay [1]; 0.759 µM in assay [2]; 1.55 µM in [3]; 0.483 µM in assay [4]; 0.696 µM in assay [5]; 1.44 µM in assay [6]. Further, the GI50 in assay [7] is 1.35 µM; in assay [8], 1.74 µM; in assay [9] it was 1.18 µM; in [10] it was 1.55 µM. Also, the TGI is 5.46 µM in assay [1]; 2.16 µM in assay [2]; 3.1 µM in [3]; 2.52 µM in assay [4]; 4.16 µM in assay [5]; 3.37 µM in assay [6]. The TGI in [7] was found to be 3.18 µM; in assay [8], 10.3 µM; in assay [9] it was 3.45 µM; in assay [10], 2.9 µM.

For the origin of these results see PubChem BioAssay (NCI).
